Assay results from US10106556B2, “Heterocyclic compound” (TAKEDA PHARMACEUTICAL COMPANY LIMITED, priority 2015, dated 2018).

Biological target: T1, His-hMAGL (recombinant polyhistidine tagged human MAGL protein) (Homo sapiens, UniProt Q99685)
T1 construct: made in house; host or cells: E. coli BL21(DE3)
T1 sequence (Q99685 1-303): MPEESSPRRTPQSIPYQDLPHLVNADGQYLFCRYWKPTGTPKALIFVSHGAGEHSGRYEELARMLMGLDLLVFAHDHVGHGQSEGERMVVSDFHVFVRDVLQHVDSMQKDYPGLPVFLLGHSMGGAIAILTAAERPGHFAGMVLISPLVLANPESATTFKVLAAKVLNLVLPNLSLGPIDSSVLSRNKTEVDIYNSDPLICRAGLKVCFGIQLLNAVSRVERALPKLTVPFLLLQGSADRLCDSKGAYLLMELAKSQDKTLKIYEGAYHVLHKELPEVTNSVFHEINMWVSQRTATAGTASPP
Test: Measurement of MAGL inhibitory activity (arachidonic acid production from 2-arachidonylglycerol, RapidFire-mass spectrometry)
Type: biochemical
Conditions: MAGL inhibitory rate at 10 μM test compound; 60 min preincubation with His-hMAGL, 2-arachidonylglycerol substrate, 10 min reaction at room temperature
Experimental: Furthermore, acetonitrile (50 μL) containing 3 μM arachidonic acid-d8 (Cayman Chemical Company) was added and the mixture was stirred.
The amount of arachidonic acid in the obtained enzyme reaction mixture was calculated by measuring by RapidFire-mass spectrometry and correcting by the amount of arachidonic acid-d8. High Throughput online solid phase extraction was performed using RapidFire 300™ system (Agilent Technologies, Inc.). Samples were loaded on SPE C4 cartridge (Agilent Technologies, Inc.) and desalted with 0.2 (v/v) % acetic acid (Wako Pure Chemical Industries, Ltd.) in ultrapure water/acetonitrile (70/30, v/v) at a flow rate of 1.5 mL/min, eluted at a flow rate of 0.5 mL/min with 0.2 (v/v) % acetic acid dissolved in acetonitrile/ultrapure water (90/10, v/v), and injected into the mass spectrometry part. The injection needle was washed with ultrapure water (500 millisecond) and acetonitrile (500 millisecond) to minimize carry-over. […] The RapidFire300 system was controlled by RapidFire UI software version 3.6 (Agilent Technologies, Inc.).
The mass spectrometry of the resultant product was performed using API4000™ triple quadrupole mass spectrometer (AB SCIEX) equipped with an electrospray ion sauce (TurboIon Spray™) in a negative selected reaction monitoring (SRM) mode. The conditions of SRM are shown below. The parameters of the instrument were optimized as follows: capillary temperature 600° C., ion spray voltage −4.5 kV, collision gas 8, curtain gas 15 psi, ion source gas 1 60 psi, ion source gas 2 60 psi. The mass spectrometer was controlled by Analyst™ software version 1.5.1 (AB SCIEX). The peak area integration was analyzed using RapidFire integrator software version 3.6 (Agilent Technologies, Inc.).
MAGL inhibitory rate (%) was calculated according to the following calculation formula. (1−(arachidonic acid production amount of test compound addition group−arachidonic acid production amount of enzyme−free group)÷(arachidonic acid production amount of test compound-free group−arachidonic acid production amount of enzyme-free group))×100

| Compound | inhibition at 10 µM |
| --- | --- |
| O=C1COc2cc(F)c(C(=O)N3CCC(O)(COc4ccc(Cl)cc4Cl)CC3)cc2N1 [Example 74, 6-((4-((2,4-dichlorophenoxy)methyl)-4-hydroxypiperidin-1-yl)carbonyl)-7-fluoro-2H-1,4-benzoxazin-3(4H)-one] | 102% |
| N#Cc1cccc(OCC2CCN(C(=O)c3cc4c(cc3F)OCC(=O)N4)CC2)c1Cl [Example 75, 2-chloro-3-((1-((7-fluoro-3-oxo-3,4-dihydro-2H-1,4-benzoxazin-6-yl)carbonyl)piperidin-4-yl)methoxy)benzonitrile] | 102% |
| O=C1COc2cc(F)c(C(=O)N3CC(COc4ccc(Cl)cc4Cl)C3)cc2N1 [Example 76, 6-((3-((2,4-dichlorophenoxy)methyl)azetidin-1-yl)carbonyl)-7-fluoro-2H-1,4-benzoxazin-3(4H)-one] | 105% |
| Cc1cc2c(cc1C(=O)N1CC(COc3ccc(F)cc3Cl)C1)NC(=O)CO2 [Example 88, 6-((3-((2-chloro-4-fluorophenoxy)methyl)azetidin-1-yl)carbonyl)-7-methyl-2H-1,4-benzoxazin-3 (4H)-one] | 96% |
| Cc1cc2c(cc1C(=O)N1CCC(COc3ccc(F)cc3Cl)CC1)NC(=O)CO2 [Example 89, 6-((4-((2-chloro-4-fluorophenoxy)methyl)piperidin-1-yl)carbonyl)-7-methyl-2H-1,4-benzoxazin-3(4H)-one] | 90% |
| CC(C)(O)c1ccc(OCC2CCN(C(=O)c3cc4c(cc3F)OCC(=O)N4)CC2)c(Cl)c1 [Example 90, 6-((4-((2-chloro-4-(2-hydroxypropan-2-yl)phenoxy)methyl)piperidin-1-yl)carbonyl)-7-fluoro-2H-1,4-benzoxazin-3(4H)-one] | 98% |
| CC(C)(O)c1cc(F)ccc1OCC1CCN(C(=O)c2cc3c(cc2F)OCC(=O)N3)CC1 [Example 91, 7-fluoro-6-((4-((4-fluoro-2-(2-hydroxypropan-2-yl)phenoxy)methyl)piperidin-1-yl)carbonyl)-2H-1,4-benzoxazin-3(4H)-one] | 99% |
| N#Cc1ccc(OCC2CN(C(=O)c3cc4c(cc3F)OCC(=O)N4)C2)c(Cl)c1 [Example 92, 3-chloro-4-((1-((7-fluoro-3-oxo-3,4-dihydro-2H-1,4-benzoxazin-6-yl)carbonyl)azetidin-3-yl)methoxy)benzonitrile] | 99% |
| O=C1COc2ccc(C(=O)N3CCC(COc4ccccc4F)CC3)cc2N1 [Example 94, 6-((4-((2-fluorophenoxy)methyl)piperidin-1-yl)carbonyl)-2H-1,4-benzoxazin-3(4H)-one] | 97% |
| O=C1COc2cc(F)c(C(=O)N3CCC(COC4CCC(F)(F)CC4)CC3)cc2N1 [Example 95, 6-((4-(((4,4-difluorocyclohexyl)oxy)methyl)piperidin-1-yl)carbonyl)-7-fluoro-2H-1,4-benzoxazin-3(4H)-one] | 97% |
| COc1cc2c(cc1C(=O)N1CCC(COc3ccc(F)cc3Cl)CC1)NC(=O)CO2 [Example 97, 6-((4-((2-chloro-4-fluorophenoxy)methyl)piperidin-1-yl)carbonyl)-7-methoxy-2H-1,4-benzoxazin-3(4H)-one] | 100% |
| COc1cc2c(cc1C(=O)N1CC(COc3ccc(F)cc3Cl)C1)NC(=O)CO2 [Example 98, 6-((3-((2-chloro-4-fluorophenoxy)methyl)azetidin-1-yl)carbonyl)-7-methoxy-2H-1,4-benzoxazin-3(4H)-one] | 99% |
| O=C1COc2cc(F)c(C(=O)N3CCC(COc4ccc(F)cc4Br)CC3)cc2N1 [Example 99, 6-((4-((2-bromo-4-fluorophenoxy)methyl)piperidin-1-yl)carbonyl)-7-fluoro-2H-1,4-benzoxazin-3(4H)-one] | 99% |
| O=C(c1cc2[nH]c(=O)oc2cc1F)N1CCC(COc2ccc(F)cc2Cl)CC1 [Example 101, 5-((4-((2-chloro-4-fluorophenoxy)methyl)piperidin-1-yl)carbonyl)-6-fluoro-1,3-benzoxazol-2(3H)-one] | 99% |
| CC1(C)Cc2cccc(OCC3CN(C(=O)c4cc5c(cc4F)OCC(=O)N5)C3)c2O1 [Example 103, 6-((3-(((2,2-dimethyl-2,3-dihydro-1-benzofuran-7-yl)oxy)methyl)azetidin-1-yl)carbonyl)-7-fluoro-2H-1,4-benzoxazin-3(4H)-one] | 102% |

More lines, now with the values ahead:

| inhibition at 10 µM | Compound |
| --- | --- |
| 105% | O=C1COc2cc(F)c(C(=O)N3CC(COc4ccc(F)cc4Cl)C3)cc2N1 [Example 77, 6-((3-((2-chloro-4-fluorophenoxy)methyl)azetidin-1-yl)carbonyl)-7-fluoro-2H-1,4-benzoxazin-3(4H)-one] |
| 100% | O=C1COc2ccc(C(=O)N3CC(COc4ccc(F)cc4Cl)C3)cc2N1 [Example 78, 6-((3-((2-chloro-4-fluorophenoxy)methyl)azetidin-1-yl)carbonyl)-2H-1,4-benzoxazin-3(4H)-one] |
| 103% | O=C(c1ccc2ccc(=O)[nH]c2c1)N1CCC(COc2ccc(F)cc2Cl)CC1 [Example 79, 7-((4-((2-chloro-4-fluorophenoxy)methyl)piperidin-1-yl)carbonyl)quinolin-2(1H)-one] |
| 100% | O=C1COc2cc(F)c(C(=O)N3CCC(COC4CCCCC4)CC3)cc2N1 [Example 80, 6-((4-((cyclohexyloxy)methyl)piperidin-1-yl)carbonyl)-7-fluoro-2H-1,4-benzoxazin-3(4H)-one] |
| 99% | N#CC1(COc2ccc(F)cc2Cl)CCN(C(=O)c2cc3c(cc2F)OCC(=O)N3)CC1 [Example 81, 4-((2-chloro-4-fluorophenoxy)methyl)-1-((7-fluoro-3-oxo-3,4-dihydro-2H-1,4-benzoxazin-6-yl)carbonyl)piperidine-4-carbonitrile] |
| 101% | C=C(C)c1ccc(OCC2CCN(C(=O)c3cc4c(cc3F)OCC(=O)N4)CC2)c(Cl)c1 [Example 82, 6-((4-((2-chloro-4-(prop-1-en-2-yl)phenoxy)methyl)piperidin-1-yl)carbonyl)-7-fluoro-2H-1,4-benzoxazin-3(4H)-one] |
| 86% | O=C1COc2cc(F)c(C(=O)N3CCC(COC4CCOCC4)CC3)cc2N1 [Example 83, 7-fluoro-6-((4-((tetrahydro-2H-pyran-4-yloxy)methyl)piperidin-1-yl)carbonyl)-2H-1,4-benzoxazin-3(4H)-one] |
| 97% | COC(=O)c1ccc(OCC2CCN(C(=O)c3cc4c(cc3F)OCC(=O)N4)CC2)c(Cl)c1 [Example 84, methyl-3-chloro-4-((1-((7-fluoro-3-oxo-3,4-dihydro-2H-1,4-benzoxazin-6-yl)carbony)piperidin-4-yl)methoxy)benzoate] |
| 102% | COC(=O)c1cc(F)ccc1OCC1CCN(C(=O)c2cc3c(cc2F)OCC(=O)N3)CC1 [Example 85, methyl 5-fluoro-2-((1-((7-fluoro-3-oxo-3,4-dihydro-2H-1,4-benzoxazin-6-yl)carbonyl)piperidin-4-yl)methoxy)benzoate] |
| 98% | O=C1COc2cc(Cl)c(C(=O)N3CCC(COc4ccc(F)cc4Cl)CC3)cc2N1 [Example 86, 7-chloro-6-((4-((2-chloro-4-fluorophenoxy)methyl)piperidin-1-yl)carbonyl)-2H-1,4-benzoxazin-3(4H)-one] |
| 102% | O=C1COc2cc(Cl)c(C(=O)N3CC(COc4ccc(F)cc4Cl)C3)cc2N1 [Example 87, 7-chloro-6-((3-((2-chloro-4-fluorophenoxy)methyl)azetidin-1-yl)carbonyl)-2H-1,4-benzoxazin-3(4H)-one] |
| 100% | O=C1COc2cc(F)c(C(=O)N3CC(F)(COc4ccc(F)cc4Cl)C3)cc2N1 [Example 96, 6-((3-((2-chloro-4-fluorophenoxy)methyl)-3-fluoroazetidin-1-yl)carbonyl)-7-fluoro-2H-1,4-benzoxazin-3(4H)-one] |
| 98% | O=C1COc2cc(F)c(C(=O)N3CCC(COc4ccc(F)cc4-c4ccccc4)CC3)cc2N1 [Example 100, 7-fluoro-6-((4-(((5-fluorobiphenyl-2-yl)oxy)methyl)piperidin-1-yl)carbonyl)-2H-1,4-benzoxazin-3(4H)-one] |
| 102% | O=C1COc2cc(F)c(C(=O)N3CC(COc4ccc5c(c4)CCCC5)C3)cc2N1 [Example 102, 7-fluoro-6-((3-((5,6,7,8-tetrahydronaphthalen-2-yloxy)methyl)azetidin-1-yl)carbonyl)-2H-1,4-benzoxazin-3(4H)-one] |
